Test results taken from patent publication US8318638B2, “Plant activator” (Shiseido Company, Ltd., priority 1999, dated 2012).

Legend:
digitalis = experiment: Growth promotion effect on digitalis; type: in vivo; details: 80 μm aqueous solution, five consecutive days then once a week for six weeks; five-and-a-half months after spraying; FIG. 6
Experimental: Two weeks after seeding of digitalis, spraying of an 80 μm specific ketol fatty acid (I) aqueous solution was carried out for five consecutive days. Furthermore, three months after the start of the test; spraying of an 80 μm specific ketol fatty acid (I) aqueous solution was carried out for six weeks (once a week). Five-and-a-half months after the six-week spraying, the size of leaves and the plant height were measured.

geranium = experiment: Growth promotion effect on geranium; type: in vivo; details: 80 μM aqueous solution, five consecutive days then once a week for six weeks; mottled and non-mottled leaf types; five-and-a-half months after last spraying; FIG. 8
Experimental: Two weeks after seeding of geranium, spraying of an 80 μM specific ketol fatty acid (I) aqueous solution was carried out for five consecutive days. Furthermore, three months after the start of the test, spraying of an 80 μM specific ketol fatty acid (I) aqueous solution was carried out for six weeks (once a week). Two types of geranium; i.e., geranium having mottled leaves and geranium having leaves of no mottles, were subjected to the test. Five-and-a-half months after the last spraying, the size of the leaves was measured.

Primula melacoides = experiment: Growth promotion effect on Primula melacoides; type: in vivo; details: 80 μM aqueous solution, five consecutive days then once a week for six weeks; six-and-a-half months after last spraying; FIG. 9
Experimental: One-and-a-half months after seeding of Primula melacoides, spraying of an 80 μm specific ketol fatty acid (I) aqueous solution was carried out for five consecutive days. Furthermore, four months after the start of the test, spraying of an 80 μM specific ketol fatty acid (I) aqueous solution was carried out for six weeks (once a week). Bolting was not observed at a nutrition growth stage of the Primula melacoides. Six-and-a-half months after the last spraying, the plant width and the leave size were measured.

[1] = test system: Dianthus caryophyllus (feeling scarlet); experiment: Growth promotion effect on Dianthus caryophyllus; type: in vivo; details: 100 μm aqueous solution sprayed once, 5 mL per plant; FIG. 11
Experimental: Seedlings of Dianthus caryophyllus (feeling scarlet) were planted in early October, and then grown by means of a customary method. In mid-April of the next year, spraying of a 100 μm specific ketol fatty acid (I) aqueous solution was carried out (5 mL per plant), and then the height of the plants was measured.

Oryza sativa L. = experiment: Growth controlling effect on Oryza sativa L. in paddy field (spraying); type: in vivo
Experimental: (2) Seedlings of Oryza sativa L. were grown in a seedbed in a manner similar to that described in (1), except that the seedlings were immersed in ion-exchange water at 10° C. for 15 days, without application of specific ketol fatty acid (I) described above in (1). Subsequently, the resultant seedlings which had been divided into five groups, each group containing three subgroups (only control group containing four subgroups) and each subgroup containing 16 seedlings, were exposed to the outside environment. Immediately after this exposure, spraying of specific ketol fatty acid (I) was carried out (0 ppm for a first group (control group), 25 ppm for second and third groups, 50 ppm for fourth and fifth groups). Thirty days after the spraying, the seedlings were planted in a paddy field, and additional spraying of specific ketol fatty acid (I) (25 ppm) was carried out for two groups; i.e., the third group (total amount of the acid (I): 25+25 ppm) and the fifth group (total amount of the acid (I): 50+25 ppm). Subsequently, the seedlings of the Oryza sativa L. were grown in the paddy field by means of a customary method. Forty-one days after the above planting, in each group, the plant height and the number of stems per plant (at a section at which four seedlings were planted) were measured, and then averaged.

[2] = test system: hyphae of P. citrinopileatus; experiment: Effect of proliferating hyphae of P. citrinopileatus Sing.; type: cell-based, Pleurotus citrinopileatus Sing.; details: 10 μM, 30 μM, 100 μm in potato-dextrose-agar medium; 37° C.; FIG. 15
Experimental: A potato-dextrose-agar culture medium was sterilized by use of an autoclave. After the medium was cooled to a temperature at which the agar was not solidified, a 1 mM specific ketol fatty acid (I) aqueous solution which had been sterilized by use of a membrane filter was added to the medium, to thereby prepare four culture media; i.e., a culture medium containing 0 μM of the fatty acid (I), a culture medium containing 10 μM of the fatty acid (I), a culture medium containing 30 μM of the fatty acid (I), and a culture medium containing 100 μm of the fatty acid (I). Each of the culture media was solidified in a 10-cm plate, and then hyphae of P. citrinopileatus (one platinum loop) was inoculated on the medium. Subsequently, the hyphae were cultured at 37° C., and proliferation of the hyphae was observed (10 plates for each group). Proliferation of the hyphae was evaluated on the basis of the average of the diameters of the proliferated hyphae on the plate.

[3] = test system: carpophores of Lentinus edodes; experiment: Growth promotion effect on carpophore of Lentinus edodes (Berk.) Singer; type: in vivo; details: 5 mL per piece, five days culture at 18° C.
Experimental: Wood (Quercus serrata) containing hyphae of Lentinus edodes was cut into pieces having a length of about 15 cm, and the pieces were immersed in 10° C. water for 24 hours, after which the pieces were allowed to stand in a container of high humidity. Subsequently, specific ketol fatty acid (I) aqueous solutions (concentration: 0 μm, 3 μM, 30 μm, and 100 μM) were applied through spraying to the resultant pieces (six pieces for each group). Each solution was applied to each group (5 mL for each piece). Subsequently, the carpophores of Lentinus edodes were cultured in the same container at 18° C. under weak light irradiation. This culture was continued for five days, and then growth of the carpophores of Lentinus edodes was observed. FIG. 16 is a photograph showing the carpophores of Lentinus edodes cultured in the groups (note: {circumflex over (1)} application of the specific ketol fatty acid (I) (0 μM), (2) (3 μM), (3). (30 μM), and (4) (100 μM)). The average of the carpophores per piece was 0 in the 0 μM application group, 0.17 in the 3 μM application group, 1.0 in the 30 μM application group, and 1.0 in the 100 μM application group.

[4] = fifth group: 50+25 ppm sprayed, 41 days after planting
[5] = fourth group: 50 ppm sprayed, 41 days after planting
[6] = second group: 25 ppm sprayed, 41 days after planting
[7] = third group: 25+25 ppm sprayed, 41 days after planting

With `CC/C=C\C/C=C\CC(=O)C(O)CCCCCCCC(=O)O` (centres unmarked) [specific ketol fatty acid (I), 9-hydroxy-10-oxo-12(Z),15(Z)-octadecadienoic acid] the plant height (digitalis) was “increased”, the size of leaves (digitalis) was “increased” and the “size of the leaves” value (geranium) was “growth of the leaves of these two types is promoted”. For the same compound, the leave size (Primula melacoides) was “increased”, the plant width (Primula melacoides) was “increased” and the “height of the plants” value [1] was “growth of the Dianthus caryophyllus plant was promoted”. The “plant height, difference between groups incl. control” value (Oryza sativa L.; 25 to 50+25 ppm, 41 days after planting) was “significant difference was not observed”, the “number of stems per plant greater than control group” value (Oryza sativa L.; each of the second through fifth groups) was “about 10%” and the “number of stems per plant” value (Oryza sativa L.; [4]) was 37. The plant height (Oryza sativa L.; [4]) was 58 cm, the “number of stems per plant” value (Oryza sativa L.; [5]) was 38 and the plant height (Oryza sativa L.; [5]) was 58 cm. The “number of stems per plant” value (Oryza sativa L.; [6]) was 38, the plant height (Oryza sativa L.; [6]) was 57 cm and the “number of stems per plant” value (Oryza sativa L.; [7]) was 39. The plant height (Oryza sativa L.; [7]) was 57 cm, the “degree of proliferation of the hyphae (average diameter on plate)” value [2] was “dependent on the concentration” and the “average of the carpophores per piece” value ([3]; 3 μM sprayed) was 0.17. For the same compound, the “average of the carpophores per piece” value ([3]; 30 μM sprayed) was 1.0 and the “average of the carpophores per piece” value ([3]; 100 μM sprayed) was 1.0.
